# Source: US20090226500A1, “SUTURES AND ANTI-SCARRING AGENTS” (Angiotech Pharmaceuticals, Inc, priority 2006, published 2009)
# Where a name gives a salt, the structure may show the parent alone. Read-outs that look alike come from different tables or passages of the source.
# Tests used:
# S. aureus ATCC25923 C622 = assay: MIC microtitre broth dilution, S. aureus; format: cell-based; settings: S. aureus ATCC25923 C622 wt Gram+, 24 h
# Method: (§1) MIC assays were conducted essentially as described by Amsterdam, D 1996, “Susceptibility testing of antimicrobials in liquid media”, p. 52-111, in Loman, V, ed. Antibiotics in laboratory medicine, 4th ed Williams and Wilkins, Baltimore, Md.
# [1] = system: P. aeruginosa PAE/K799 H187; assay: MIC microtitre broth dilution, P. aeruginosa; format: cell-based; settings: P. aeruginosa PAE/K799 H187 wt Gram−, 24 h
# Method: as §1
# [2] = system: K. pneumoniae ATCC13883 C238; assay: MIC microtitre broth dilution, K. pneumoniae; format: cell-based; settings: K. pneumoniae ATCC13883 C238 wt Gram−, 24 h
# Method: as §1
# S. pyogenes C721 = assay: MIC microtitre broth dilution, S. pyogenes; format: cell-based; settings: S. pyogenes C721 wt Gram+, Todd Hewitt broth
# Method: as §1
# S. epidermidis C621 = assay: MIC microtitre broth dilution, S. epidermidis; format: cell-based; settings: S. epidermidis C621 wt Gram+, 24 h
# Method: as §1
# E. coli UB1005 C498 = assay: MIC microtitre broth dilution, E. coli; format: cell-based; settings: E. coli UB1005 C498 wt Gram−, 24 h
# Method: as §1
# [3] = system: TNFα production by THP-1 cells; assay: TNF-alpha production by macrophages; format: cell-based, human; settings: read-out: IC50 TNFα production
# Method: (§2) The human macrophage cell line, THP-1 was plated in a 12-well plate such that each well contains 1×10^6 cells in 2 ml of media containing 10% FCS. Opsonized zymosan was prepared by resuspending 20 mg of zymosan A in 2 ml of ddH2O and homogenizing until a uniform suspension was obtained. Homogenized zymosan was pelleted at 250 g and resuspended in 4 ml of human serum for a final concentration of 5 mg/ml and incubated in a 37° C. water bath for 20 minutes to enable opsonization.
# THP-1 cells were stimulated to produce TNFα by the addition of 1 mg/ml opsonized zymosan. […] Each drug concentration was tested in triplicate wells. Plates were incubated at 37° C. for 24 hours.
# After a 24-hour stimulation, supernatants were collected to quantify TNFα production. TNFα concentrations in the supernatants were determined by ELISA using recombinant human TNFα to obtain a standard curve A 96-well MaxiSorb plate was coated with 100 μL of anti-human TNFα Capture Antibody diluted in Coating Buffer (0.1M sodium carbonate pH 9 5) overnight at 4° C. The dilution of Capture Antibody used was lot-specific and was determined empirically. Capture antibody was then aspirated and the plate washed 3 times with Wash Buffer (PBS, 0.05% TWEEN-20) Plates were blocked for 1 hour at room temperature with 200 μL/well of Assay Diluent (PBS, 10% FCS pH 7.0). After blocking, plates were washed 3 times with Wash Buffer. […] Sample supernatants and standards were assayed in triplicate and were incubated at room temperature for 2 hours after addition to the plate coated with Capture Antibody. The plates were washed 5 times and incubated with 100 μL of Working Detector (biotinylated anti-human TNFα detection antibody+avidin-HRP) for 1 hour at room temperature. Following this incubation, the plates were washed 7 times and 100 μL of Substrate Solution (tetramethylbenzidine, H2O2) was added to plates and incubated for 30 minutes at room temperature. […] Mean absorbance was determined from triplicate data readings and the mean background was subtracted. TNFα concentration values were obtained from the standard curve.
# Smooth muscle cells = assay: Proliferation of smooth muscle cells; format: cell-based; settings: 72 hours, CYQUANT; read-out: IC50 proliferation of smooth muscle cells
# Method: Smooth muscle cells at 70-90% confluency were trypsinized, replated at 600 cells/well in media in 96-well plates and allowed to attachment overnight. Paclitaxel was prepared in DMSO at a concentration of 10^−2 M and diluted 10-fold to give a range of stock concentrations (10^−8 M to 10^−2 M). […] Each drug concentration was tested in triplicate wells. Plates containing cells and paclitaxel were incubated at 37° C. for 72 hours.
# To terminate the assay, the media was removed by gentle aspiration A 1/400 dilution of CYQUANT 400×GR dye indicator (Molecular Probes; Eugene, Oreg.) was added to 1× Cell Lysis buffer, and 200 μL of the mixture was added to the wells of the plate. Plates were incubated at room temperature, protected from light for 3-5 minutes.
# [4] = system: IL-1β production by THP-1 cells; assay: IL-1β production by macrophages; format: cell-based, human; settings: read-out: IC50 IL-1β production
# human fibroblasts = assay: Cell proliferation of fibroblasts; format: cell-based; settings: Fibroblast, 72 hours, CYQUANT, read-out: IC50 cell proliferation of fibroblasts
# In short: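 Human fibroblasts plated at 600 cells/well, attached overnight, then exposed to drug in triplicate for 72 h at 37°C. Cell content read with CYQUANT GR dye in lysis buffer after 3-5 min at room temperature.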
# [5] = system: MCP-1 production by THP-1 cells; assay: MCP-1 production by macrophages; format: cell-based, human; settings: read-out: IC50 MCP-1 production
# Method: as §2, with “12 well” for “12-well”, “opsonization. Geldanamycin was prepared in DMSO at a concentration of 10^−2 M and serially diluted 10-fold to give a range of stock concentrations (10^−8 M to 10^−2 M).” for “opsonization.”
# (§3) THP-1 cells were stimulated to produce MCP-1 by the addition of 1 mg/ml opsonized zymosan. Eldanamycin was added to THP-1 cells by directly adding DMSO stock solutions, prepared earlier, at a 1/1000 dilution, to each well. Each drug concentration was tested in triplicate wells. Plates were incubated at 37° C. for 24 hours.
# After a 24-hour stimulation, supernatants were collected to quantify MCP-1 production. MCP-1 concentrations in the supernatants were determined by ELISA using recombinant human MCP-1 to obtain a standard curve. A 96-well MaxiSorb plate was coated with 100 μL of anti-human MCP-1 Capture Antibody diluted in Coating Buffer (0.1M sodium carbonate pH 9.5) overnight at 4° C. The dilution of Capture Antibody used was lot-specific and was determined empirically. Capture antibody was then aspirated and the plate washed 3 times with Wash Buffer (PBS, 0.05% TWEEN-20). Plates were blocked for 1 hour at room temperature with 200 μL/well of Assay Diluent (PBS, 10% FCS pH 7.0). After blocking, plates were washed 3 times with Wash Buffer. […] Sample supernatants and standards were assayed in triplicate and were incubated at room temperature for 2 hours after addition to the plate coated with Capture Antibody. The plates were washed 5 times and incubated with 100 μL of Working Detector (biotinylated anti-human MCP-1 detection antibody+avidin-HRP) for 1 hour at room temperature. Following this incubation, the plates were washed 7 times and 100 μL of Substrate Solution (tetramethylbenzidine, H2O2) was added to plates and incubated for 30 minutes at room temperature. […] Mean absorbance was determined from triplicate data readings and the mean background was subtracted. MCP-1 concentration values were obtained from the standard curve.
# [6] = system: IL-8 production by THP-1 cells; assay: IL-8 production by macrophages; format: cell-based, human; settings: THP-1 cells stimulated with opsonized zymosan, 24 hours, read-out: IC50 IL-8 production
# Method: as §2, with “12 well” for “12-well”, “g,” for “g and”, “mg/ml,” for “mg/ml”, “opsonization. Geldanamycin was prepared in DMSO at a concentration of 10^−2 M and serially diluted 10-fold to give a range of stock concentrations (10^−8 M to 10^−2 M).” for “opsonization.”
# as §3, with “IL-8” for “MCP-1”, “Geldanamycin” for “Eldanamycin”
# After a 24-hour stimulation, supernatants were collected to quantify IL-8 production. IL-8 concentrations in the supernatants were determined by ELISA using recombinant human IL-8 to obtain a standard curve. A 96-well MAXISORB plate was coated with 100 μL of anti-human IL-8 Capture Antibody diluted in Coating Buffer (0.1M sodium carbonate pH 9.5) overnight at 4° C. The dilution of Capture Antibody used was lot-specific and was determined empirically. Capture antibody was then aspirated and the plate washed 3 times with Wash Buffer (PBS, 0.05% TWEEN-20). Plates were blocked for 1 hour at room temperature with 200 μL/well of Assay Diluent (PBS, 10% FCS pH 7.0). After blocking, plates were washed 3 times with Wash Buffer. Standards and sample dilutions were prepared as follows: (a) sample supernatants were diluted 1/100 and 1/1000; (b) recombinant human IL-8 was prepared at 200 pg/ml and serially diluted to yield as standard curve of 3.1 pg/ml to 200 pg/ml Sample supernatants and standards were assayed in triplicate and were incubated at room temperature for 2 hours after addition to the plate coated with Capture Antibody The plates were washed 5 times and incubated with 100 μL of Working Detector (biotinylated anti-human IL-8 detection antibody+avidin-HRP) for 1 hour at room temperature. Following this incubation, the plates were washed 7 times and 100 μL of Substrate Solution (Tetramethylbenzidine, H2O2) was added to plates and incubated for 30 minutes at room temperature. Stop Solution (2 NH2SO4) was then added to the wells and a yellow color reaction was read at 450 nm with A correction at 570 nm. Mean absorbance was determined from triplicate data readings and the mean background was subtracted. IL-8 concentration values were obtained from the standard curve. […] The IC50 values for the following additional compounds were determined using this assay: IC50 (nM): 17-AAG, 56; mycophenolic acid, 549; resveratrol, 507; rapamycin, 4; 41; SP600125, 344; halofuginone, 641; D-mannose-6-phosphate, 220; epirubicin hydrochloride, 654; topotemay, 257; mithramycin, 33; daunorubicin, 421; celastrol, 490; chromomycin A3, 36
# [7] = THP-1 cells stimulated with opsonized zymosan, 24 hours
# [8] = Homo sapiens, THP-1 cells stimulated with opsonized zymosan, 24 hours
compound,measurement,setting,value
CN(Cc1cnc2nc(N)nc(N)c2n1)c1ccc(C(=O)N[C@@H](CCC(=O)O)C(=O)O)cc1 [methotrexate],Minimum inhibitory concentration,S. aureus ATCC25923 C622,10^−5 Molar
same,Minimum inhibitory concentration,[1],N
same,Minimum inhibitory concentration,[2],10^−6 Molar
same,Minimum inhibitory concentration,S. pyogenes C721,10^−6 Molar
same,Minimum inhibitory concentration,S. epidermidis C621,N
same,Minimum inhibitory concentration,E. coli UB1005 C498,N
"O=C1c2ccccc2-[n+]2ccc3c([nH]c4ccccc43)c21 [fascaplycin, Fascaplysin]",IC50,"[3]; Homo sapiens, THP-1, 24 h",701 nM
same,IC50,Smooth muscle cells,510 nM
same,IC50,"[4]; Homo sapiens, THP-1, 24 h",425 nM
same,IC50,human fibroblasts,600 to 1200 nM
same,IC50,"[5]; Homo sapiens, THP-1, 24 h",215 nM
Sc1ncnc2nc[nH]c12 [6-mercaptopurine],Minimum inhibitory concentration,E. coli UB1005 C498,N
CO[C@@H]1[C@H](O)C[C@@H](O[C@@H]2C[C@H](Oc3cc4cc5c(c(O)c4c(O)c3C)C(=O)[C@@H](O[C@H]3C[C@@H](O[C@H]4C[C@@H](O[C@H]6C[C@](C)(O)[C@@H](OC(C)=O)[C@H](C)O6)[C@H](O)[C@@H](C)O4)[C@H](O)[C@@H](C)O3)[C@H]([C@H](OC)C(=O)[C@@H](O)[C@@H](C)O)C5)O[C@H](C)[C@@H]2OC(C)=O)O[C@@H]1C [chromomycin A3],IC50,[6],36 nM
same,IC50,[3]; [7],394 nM
same,IC50,Smooth muscle cells,12 nM
same,IC50,[4],148 nM
same,IC50,[5]; [7],37 nM
Sc1ncc2[nH]cnc2n1 [2-mercaptopurine],Minimum inhibitory concentration,E. coli UB1005 C498,N
O=C(CC1NCCCC1O)Cn1cnc2cc(Br)c(Cl)cc2c1=O (stereo not drawn) [halofuginone],IC50,[6]; Homo sapiens,641 nM
same,IC50,Smooth muscle cells,81 nM
same,IC50,"[4]; Homo sapiens, THP-1, 24 h",919 nM
same,IC50,human fibroblasts,10 to 100 nM
same,IC50,[5]; [8],9 nM
COc1cccc2c1C(=O)c1c(O)c3c(c(O)c1C2=O)C[C@@](O)(C(=O)CO)C[C@@H]3O[C@H]1C[C@H](N)[C@@H](O)[C@H](C)O1 [epirubicin hydrochloride],IC50,[6],654 nM
same,IC50,Smooth muscle cells,19 nM
same,IC50,[4]; [7],774 nM
COc1cccc2c1C(=O)c1c(O)c3c(c(O)c1C2=O)C[C@@](O)(C(C)=O)C[C@@H]3O[C@H]1C[C@H](N)[C@H](O)[C@H](C)O1 [daunorubicin],IC50,[6],421 nM
same,IC50,[3]; [7],195 nM
same,IC50,Smooth muscle cells,50 nM
same,IC50,[4],517 nM
same,IC50,[5]; [7],570 nM
"CC[C@@]1(O)C(=O)OCc2c1cc1n(c2=O)Cc2cc3c(CN(C)C)c(O)ccc3nc2-1 [topotemay, Topotecan]",IC50,[6],257 nM
same,IC50,Smooth muscle cells,51 nM
same,IC50,[4]; [7],509 nM
same,IC50,[5]; [7],514 nM
rapamycin,IC50,[6],4 nM
same,IC50,[3]; [7],51 nM
same,IC50,[4]; [7],0.48 nM
same,IC50,[5]; [7],0.05 nM
"O=C1c2c(O)ccc(O)c2C(=O)c2c(NCCNCCO)ccc(NCCNCCO)c21 [mitoxantrone, 9,10-anthracenedione, 1,4-dihydroxy-5,8-bis((2-((2-hydroxyethyl)amino)ethyl)amino)-]",Minimum inhibitory concentration,E. coli UB1005 C498,10^−5 Molar
same,IC50,Smooth muscle cells,1 nM
same,IC50,[5]; [8],62 nM
